Reference: patent publication US9827292B2, “Use of KGF in the treatment of menopausal disorders” (Università degli Studi di Roma “La Sapienza”, priority 2012, dated 2017)

Assay: In vitro release test of Pluronic F127 hydrogel with model molecules
Format: physicochemical
Conditions: F127 20% w/v, 60 ml H2O, 37° C., FIG. 6D
Protocol: 2 mL of loaded hydrogel containing 4 mg of myoglobin or prednisolone in a solution of 20% Pluronic F127 w/v were introduced into a dialysis membrane bag (MWCO 3500 Da), and the dialysis bag sealed at the end was incubated in 60 mL of release medium (distilled water) at 37° C. and was stirred at a rate of 50 rpm. Saturation conditions were avoided by means of frequent substitution of fresh water. At predetermined intervals, aliquots of 0.5 mL of release medium were removed and substituted with an equal volume of fresh solution. The release behaviour in vitro of hydrogel loaded with myoglobin was compared with that of hydrogel loaded with prednisolone. All the assays were conducted in triplicate. Release profiles were expressed in cumulative release percentages over time.
The loaded hydrogels were prepared by solubilising at low temperature, in a 5 ml vial, an exact quantity of model molecule (approximately 4-5 mg) in 2 ml of solution of F127 20% w/v; the solution was then brought to the hydrogel state by placing the hermetically sealed vial at 37° C. The vial, closed at the head with a perforated mesh, was then introduced into the release medium (60 ml bidistilled H2O, T=37° C.) and held under constant and gentle stirring. The release therefore occurred by means of diffusion from the upper surface of the gel to the dissolution medium. […]

Row | Compound | release profile from Pluronic F127 hydrogel, comparison of the two model molecules
1 | C[C@]12C=CC(=O)C=C1CC[C@@H]1[C@@H]2[C@@H](O)C[C@@]2(C)[C@H]1CC[C@]2(O)C(=O)CO [prednisolone] | almost identical for the two different molecules
2 | myoglobin | almost identical for the two different molecules
